In general, EC50 refers to the concentration that produces a half-maximal response.

1 molecule from patent US20220259202A1, “1-(4-(AMINOMETHYL)BENZYL)-2-BUTYL-2H-PYRAZOLO[3,4-C]QUINOLIN-4-AMINE DERIVATIVES AND RELATED COMPOUNDS AS TOLL-LIKE RECEPTOR (TLR) 7/8 AGONISTS, AS WELL AS ANTIBODY DRUG CONJUGATES THEREOF FOR USE IN CANCER THERAPY AND DIAGNOSIS” (SUTRO BIOPHARMA, INC., priority 2019, published 2022) can be followed below.

Each structure is given as a SMILES string.

For one assay, the target named is T1, human TLR7 (Homo sapiens, UniProt Q9NYK1).
T1 construct: host or cells: HEK293
T1 sequence (Q9NYK1 27-1049): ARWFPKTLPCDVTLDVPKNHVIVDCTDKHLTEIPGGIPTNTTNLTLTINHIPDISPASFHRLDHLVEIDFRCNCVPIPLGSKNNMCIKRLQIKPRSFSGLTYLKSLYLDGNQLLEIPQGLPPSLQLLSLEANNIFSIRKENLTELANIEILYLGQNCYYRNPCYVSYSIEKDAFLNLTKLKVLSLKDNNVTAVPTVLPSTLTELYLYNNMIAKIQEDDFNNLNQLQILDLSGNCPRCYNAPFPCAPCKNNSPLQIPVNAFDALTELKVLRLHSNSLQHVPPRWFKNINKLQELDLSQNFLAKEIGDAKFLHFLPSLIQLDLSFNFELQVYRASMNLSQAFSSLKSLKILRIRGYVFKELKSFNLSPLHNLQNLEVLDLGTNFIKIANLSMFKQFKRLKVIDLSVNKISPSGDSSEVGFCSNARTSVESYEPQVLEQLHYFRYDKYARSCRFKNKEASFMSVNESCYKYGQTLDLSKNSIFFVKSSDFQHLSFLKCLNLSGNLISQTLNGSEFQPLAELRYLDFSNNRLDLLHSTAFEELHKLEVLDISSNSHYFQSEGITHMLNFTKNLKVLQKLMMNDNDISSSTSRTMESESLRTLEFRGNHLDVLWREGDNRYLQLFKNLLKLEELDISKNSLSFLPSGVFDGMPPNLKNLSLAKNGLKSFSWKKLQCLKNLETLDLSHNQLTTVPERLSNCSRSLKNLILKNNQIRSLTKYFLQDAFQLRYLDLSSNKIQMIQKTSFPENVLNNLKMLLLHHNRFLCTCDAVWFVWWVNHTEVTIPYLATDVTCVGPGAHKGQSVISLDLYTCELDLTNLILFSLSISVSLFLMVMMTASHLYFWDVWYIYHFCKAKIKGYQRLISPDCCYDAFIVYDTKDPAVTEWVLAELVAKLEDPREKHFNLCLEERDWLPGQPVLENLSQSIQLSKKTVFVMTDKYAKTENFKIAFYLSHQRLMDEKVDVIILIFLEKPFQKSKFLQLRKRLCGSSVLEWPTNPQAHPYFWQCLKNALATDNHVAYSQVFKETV
The assay is described as follows: HEK293 SEAP reporter assay, human TLR7 (Biological Example 1). It counts as cell-based. Conditions: HEK293-humanTLR7 reporter cells, 4 hrs; read-out: hTLR7 EC50. Here is the method:
(§1) In this example, the activity of the TLR7 agonists to activate human TLR7, hTLR7 (or human TLR8, hTLR8, or mouse TLR7, mTLR7) pathway was evaluated on HEK293 reporter cells transfected with human TLR7 (or mouse TLR7 or human TLR8) and an inducible SEAP (secreted embryonic alkaline phosphatase) reporter gene. The SEAP reporter gene is placed under the control of the IFN-β minimal promoter fused to five NF-κB and AP-1-binding sites. Stimulation with a TLR7 agonist activates NF-KB and AP-1 which induces the production of SEAP. Levels of SEAP was determined with HEK-Blue Detection medium.
(§2) HEK293-humanTLR7, HEK293-mouseTLR7 and HEK293-humanTLR8 reporter cell lines were purchased from Invivogen and cell lines were maintained in manufacture recommended culture medium with required supplemental antibiotics. On the day of assay, the cells were harvested with Accutase and counted by the Vi-CELL Cell Viability Analyzers. Cells were re-suspended in HEK blue detection medium and a total of 10000 cells were seeded in each well of a 384-well flat bottom plate. Serial dilutions of TLR7 agonists free drugs (1:3 serial dilution starting from 5 μM) was added into treatment wells. Assay plates were cultured at 37° C. in a CO2 incubator for […]. HEK-Blue™ Detection medium changes to a purple/blue color in the presence of secreted SEAP, which can be detected by spectrophotometry at 620-655 nm. […]
In general terms: A reporter such as luciferase makes a cellular process visible.

In the next assay the target is T2, mouse TLR7 (Mus musculus, UniProt P58681).
T2 construct: host or cells: HEK293
T2 sequence (P58681 27-1050): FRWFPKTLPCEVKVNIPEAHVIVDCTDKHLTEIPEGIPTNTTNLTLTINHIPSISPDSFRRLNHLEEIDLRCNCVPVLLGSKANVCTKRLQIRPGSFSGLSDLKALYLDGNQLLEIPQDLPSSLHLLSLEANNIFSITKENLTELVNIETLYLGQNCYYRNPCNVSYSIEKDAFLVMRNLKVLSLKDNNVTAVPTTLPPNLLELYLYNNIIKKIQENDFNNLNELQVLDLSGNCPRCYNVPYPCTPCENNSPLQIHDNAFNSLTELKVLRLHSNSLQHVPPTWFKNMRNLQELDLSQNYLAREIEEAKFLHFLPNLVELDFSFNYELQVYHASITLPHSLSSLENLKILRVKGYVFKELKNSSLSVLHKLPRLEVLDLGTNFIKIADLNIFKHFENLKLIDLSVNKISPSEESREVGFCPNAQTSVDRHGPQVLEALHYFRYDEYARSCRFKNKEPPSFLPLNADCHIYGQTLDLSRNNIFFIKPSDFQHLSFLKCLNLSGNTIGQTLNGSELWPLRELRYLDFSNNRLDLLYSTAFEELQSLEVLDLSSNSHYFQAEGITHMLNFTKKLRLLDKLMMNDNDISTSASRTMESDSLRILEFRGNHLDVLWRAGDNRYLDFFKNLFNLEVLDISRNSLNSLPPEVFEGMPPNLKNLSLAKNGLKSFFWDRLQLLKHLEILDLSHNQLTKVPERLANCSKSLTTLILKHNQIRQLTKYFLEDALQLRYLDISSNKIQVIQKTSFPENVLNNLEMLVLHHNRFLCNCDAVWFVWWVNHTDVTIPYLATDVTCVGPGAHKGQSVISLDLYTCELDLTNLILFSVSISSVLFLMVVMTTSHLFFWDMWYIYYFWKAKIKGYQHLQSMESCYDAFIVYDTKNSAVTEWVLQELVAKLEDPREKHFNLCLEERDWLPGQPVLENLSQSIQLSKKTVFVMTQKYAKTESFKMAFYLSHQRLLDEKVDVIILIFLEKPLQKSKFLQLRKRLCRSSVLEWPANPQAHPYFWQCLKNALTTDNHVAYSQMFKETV
The assay is described as follows: HEK293 SEAP reporter assay, mouse TLR7 (Biological Example 1). The format is cell-based. Conditions: HEK293-mouseTLR7 reporter cells, 4 hrs; read-out: mTLR7 EC50. As to the method:
as §1, §2

Consider `CCCCn1nc2c(N)nc3ccccc3c2c1Cc1ccc(CN)cc1` [Compound 1, 1-(4-(aminomethyl)benzyl)-2-butyl-2H-pyrazolo[3,4-c]quinolin-4-amine], for which the figures for the EC50 at human TLR7 and on mouse TLR7 were 46.7 nM and 29.1 nM, respectively.
